Test results published in PubChem BioAssay AID248 (DTP/NCI, 2004).
Toxic doses and inconclusive results are not listed. Rule as the data show it: active = T/C of 150% or more; inactive = T/C below 125%.

Tested on: L1210 leukemia ip in BDF1 mice, survival T/C
Experiment: NCI In Vivo Anticancer Drug Screen. Data for tumor model L1210 Leukemia (intraperitoneal) in B6D2F1 (BDF1) mice
Conditions: endpoint: mean survival time, higher = longer survival
How it was run: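 Value reflects the ratio of survival in compound-treated mice to survival in vehicle-treated controls, with both groups carrying the same transplanted tumor.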

[1] = dose: 100.0 mg/kg/injection, schedule: Q01DX009 (ip), vehicle: Klucel (hydroxypropylcellulose) (HPC)
[2] = dose: 100.0 mg/kg/injection, schedule: Q04DX002 (ip), vehicle: Klucel (hydroxypropylcellulose) (HPC)
[3] = dose: 200.0 mg/kg/injection, schedule: Q01DX009 (ip), vehicle: Klucel (hydroxypropylcellulose) (HPC)
[4] = dose: 200.0 mg/kg/injection, schedule: Q04DX002 (ip), vehicle: Klucel (hydroxypropylcellulose) (HPC)
[5] = dose: 400.0 mg/kg/injection, schedule: Q04DX002 (ip), vehicle: Klucel (hydroxypropylcellulose) (HPC)

Measured: T/C

C=C(C(=O)OC1CC2CCC(C1)N2C)c1ccccc1 (stereo not drawn)
inactive: dose: 1.25 mg/kg/injection, schedule: Q01DX Z (ip), vehicle: saline 90 % of control | dose: 1.25 mg/kg/injection, schedule: Q04DX003 (ip), vehicle: Klucel (hydroxypropylcellulose) (HPC) 113 % of control | dose: 2.5 mg/kg/injection, schedule: Q01DX Z (ip), vehicle: saline 105 % of control | dose: 2.5 mg/kg/injection, schedule: Q04DX003 (ip), vehicle: Klucel (hydroxypropylcellulose) (HPC) 101 % of control | dose: 5.0 mg/kg/injection, schedule: Q01DX Z (ip), vehicle: saline 97 % of control | dose: 5.0 mg/kg/injection, schedule: Q04DX003 (ip), vehicle: Klucel (hydroxypropylcellulose) (HPC) 107 % of control | dose: 10.0 mg/kg/injection, schedule: Q01DX001 (ip), vehicle: carboxymethylcellulose (CMC) 111 % of control | dose: 10.0 mg/kg/injection, schedule: Q04DX003 (ip), vehicle: Klucel (hydroxypropylcellulose) (HPC) 106 % of control | dose: 20.0 mg/kg/injection, schedule: Q01DX001 (ip), vehicle: carboxymethylcellulose (CMC) 93 % of control

COc1ccc(NCC(O)CN2CCCC2)cc1 (stereo not drawn)
inactive: dose: 100.0 mg/kg/injection, schedule: Q01DX001 (ip), vehicle: saline 112 % of control | dose: 200.0 mg/kg/injection, schedule: Q01DX001 (ip), vehicle: saline 104 % of control

[Cl][Ho]([Cl])[Cl]
inactive: dose: 100.0 mg/kg/injection, schedule: Q01DX005 (ip), vehicle: Klucel (hydroxypropylcellulose) (HPC) 94 % of control | [1] 98 % of control | [2] 88 % of control | dose: 200.0 mg/kg/injection, schedule: Q01DX005 (ip), vehicle: Klucel (hydroxypropylcellulose) (HPC) 98 % of control | [3] 95 % of control | [4] 98 % of control | dose: 400.0 mg/kg/injection, schedule: Q01DX005 (ip), vehicle: Klucel (hydroxypropylcellulose) (HPC) 88 % of control | [5] 109 % of control

Cc1ccc(Cl)cc1NC(=O)C(Br)C(Br)C(=O)O (stereo not drawn)
inactive: [1] 91 % of control | [3] 101 % of control

COc1cc(NCCCCCNC(C)C)c2ncccc2c1
inactive: dose: 5.0 mg/kg/injection, schedule: Q04DX002 (ip), vehicle: saline with Tween-80 100 % of control | dose: 10.0 mg/kg/injection, schedule: Q04DX002 (ip), vehicle: saline with Tween-80 97 % of control | dose: 20.0 mg/kg/injection, schedule: Q04DX002 (ip), vehicle: saline with Tween-80 100 % of control

COc1ccc(SC(=O)Nc2cc([N+](=O)[O-])ccc2Cl)cc1
inactive: dose: 25.0 mg/kg/injection, schedule: Q01DX009 (ip), vehicle: saline with Tween-80 89 % of control | dose: 50.0 mg/kg/injection, schedule: Q01DX009 (ip), vehicle: saline with Tween-80 89 % of control

CCCCS(=O)(=O)N1CCCC(C)C1 (stereo not drawn)
inactive: [2] 100 % of control | [4] 107 % of control | [5] 103 % of control

COc1ccccc1NC(=O)Nc1ccccc1Cl
inactive: dose: 100.0 mg/kg/injection, schedule: Q01DX009 (ip), vehicle: saline with Tween-80 88 % of control | dose: 100.0 mg/kg/injection, schedule: Q04DX003 (ip), vehicle: saline with Tween-80 89 % of control | dose: 200.0 mg/kg/injection, schedule: Q01DX009 (ip), vehicle: saline with Tween-80 112 % of control | dose: 200.0 mg/kg/injection, schedule: Q04DX003 (ip), vehicle: saline with Tween-80 92 % of control | dose: 400.0 mg/kg/injection, schedule: Q01DX009 (ip), vehicle: saline with Tween-80 92 % of control | dose: 400.0 mg/kg/injection, schedule: Q04DX003 (ip), vehicle: saline with Tween-80 89 % of control

Nc1cc(Cl)cc(Cl)c1C(=O)O
inactive: dose: 50.0 mg/kg/injection, schedule: Q01DX009 (ip), vehicle: other 100 % of control | dose: 100.0 mg/kg/injection, schedule: Q01DX009 (ip), vehicle: other 94 % of control | dose: 100.0 mg/kg/injection, schedule: Q04DX003 (ip), vehicle: saline 90 % of control | dose: 200.0 mg/kg/injection, schedule: Q04DX003 (ip), vehicle: saline 90 % of control

Cc1ccc(S(=O)(=O)N/N=c2\cc(C)c3ccccc3n2C)cc1
inactive: dose: 100.0 mg/kg/injection, schedule: Q04DX003 (ip), vehicle: gum acacia 95 % of control | dose: 200.0 mg/kg/injection, schedule: Q04DX003 (ip), vehicle: gum acacia 94 % of control | dose: 400.0 mg/kg/injection, schedule: Q04DX003 (ip), vehicle: gum acacia 93 % of control

CC(C)CC(CC(C)C)NC(C)COC(=O)c1ccc(N)cc1 (stereo not drawn)
inactive: dose: 75.0 mg/kg/injection, schedule: Q01DX001 (ip), vehicle: saline 96 % of control
